Results on 5 compounds are retold here after paper PMC4013053, “Identification of Selective Small Molecule Inhibitors of the Nucleotide-Binding Oligomerization Domain 1 (NOD1) Signaling Pathway” (PLoS ONE, 2014).

One data set is described as follows: CLND solubility. Format: physicochemical. To be noted: phosphate buffered saline with 5% DMSO, pH 7.4, aqueous buffer, kinetic from dmso stock; 5% DMSO pH7.4 phosphate buffered saline. The source says:
Physicochemical analyses of compounds were completed at GSK.

For the next data set, the target named is T1, NOD1 (Homo sapiens, UniProt Q9Y239).
T1 sequence (Q9Y239 1-953): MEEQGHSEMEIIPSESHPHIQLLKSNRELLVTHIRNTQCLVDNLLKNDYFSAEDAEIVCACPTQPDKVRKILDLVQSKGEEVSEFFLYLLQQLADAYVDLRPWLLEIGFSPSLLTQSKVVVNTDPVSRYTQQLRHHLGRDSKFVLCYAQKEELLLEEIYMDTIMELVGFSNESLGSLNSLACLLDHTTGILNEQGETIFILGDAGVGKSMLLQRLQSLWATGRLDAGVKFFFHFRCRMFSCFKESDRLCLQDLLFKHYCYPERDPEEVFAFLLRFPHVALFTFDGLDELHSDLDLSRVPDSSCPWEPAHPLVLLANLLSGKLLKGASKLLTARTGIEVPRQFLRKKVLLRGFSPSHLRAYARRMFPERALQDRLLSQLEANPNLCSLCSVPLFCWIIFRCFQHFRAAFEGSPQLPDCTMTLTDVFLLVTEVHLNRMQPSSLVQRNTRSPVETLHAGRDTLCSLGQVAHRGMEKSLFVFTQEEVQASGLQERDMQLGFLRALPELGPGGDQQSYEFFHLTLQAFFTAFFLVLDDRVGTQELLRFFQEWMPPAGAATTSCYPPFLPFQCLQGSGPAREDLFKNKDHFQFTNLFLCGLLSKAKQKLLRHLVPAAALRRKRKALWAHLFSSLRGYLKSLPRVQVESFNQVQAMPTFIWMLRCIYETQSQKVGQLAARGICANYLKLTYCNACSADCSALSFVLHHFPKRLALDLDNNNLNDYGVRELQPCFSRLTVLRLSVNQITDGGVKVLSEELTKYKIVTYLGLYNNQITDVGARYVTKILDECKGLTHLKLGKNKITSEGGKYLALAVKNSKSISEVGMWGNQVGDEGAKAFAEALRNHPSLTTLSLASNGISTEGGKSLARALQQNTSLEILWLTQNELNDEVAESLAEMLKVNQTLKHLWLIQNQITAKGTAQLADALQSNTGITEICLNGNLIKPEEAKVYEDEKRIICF
The data set is described as follows: iE-DAP-stimulated IL-8 release in 293/hNOD1 cells. Format: cell-based. The method, then:
(§1) Inhibitors of iE-DAP-stimulated IL-8 release were screened in a 1536-well assay in which 293/hNOD1 cells (5000 cells/well) in DMEM high glucose medium supplemented with 0.1% FBS and 10 µg/mL Blasticidin S were stimulated with 60 ng/mL (200 nM) iE-DAP (EC80) in the presence of 10 µM compounds. After 24 hours the amount of IL-8 secreted into the medium was determined by homogeneous time resolved fluorescence (HTRF) assay by the direct addition of a 1∶1 mix of europium cryptate and XL665-conjugated anti-IL-8 antibodies according to the manufacturer’s instructions (Cisbio). Fluorescence was measured after 2 hours in a ViewLux imager using UMB-AMC excitation and 618–671 nm emission filters (Perkin Elmer). […] Inhibition of TNFR1-induced IL-8 release was performed with 293/hNOD1 cells stimulated with 20 ng/mL (∼EC95) rhTNFα.
(§2) A high-throughput screen of about 2.2 million compounds was conducted for inhibitors of the NOD1 signaling pathway using suppression of iE-DAP stimulated IL-8 secretion in HEK293 cells stably expressing human NOD1 (293/hNOD1 cells). […] These assays were chosen to assess the selectivity of hits because the signaling pathways activated by these receptors converge at the level of the TAB/TAK1/IKK complex.

The target in another data set is T2, TNFR1 (Homo sapiens, UniProt P19438).
T2 construct: TNFR1 (TNFα stimulated IL-8 secretion in 293/hNOD1 cells); host or cells: 293/hNOD1 (HEK293)
T2 sequence (P19438 30-455): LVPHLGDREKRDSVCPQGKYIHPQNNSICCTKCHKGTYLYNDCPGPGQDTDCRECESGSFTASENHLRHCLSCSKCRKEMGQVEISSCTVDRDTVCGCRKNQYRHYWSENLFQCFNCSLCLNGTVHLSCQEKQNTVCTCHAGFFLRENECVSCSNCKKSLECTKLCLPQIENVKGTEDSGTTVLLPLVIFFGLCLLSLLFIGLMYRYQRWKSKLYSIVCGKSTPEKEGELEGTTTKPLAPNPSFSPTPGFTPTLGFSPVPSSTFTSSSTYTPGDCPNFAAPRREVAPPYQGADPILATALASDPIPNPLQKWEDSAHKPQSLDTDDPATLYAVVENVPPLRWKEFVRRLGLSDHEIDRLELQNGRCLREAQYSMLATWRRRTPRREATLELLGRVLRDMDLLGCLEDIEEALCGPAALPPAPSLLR
Kind of data set: TNFα-stimulated IL-8 release in 293/hNOD1 cells. Format: cell-based. The settings on record: IL-8 released into medium. The method, then: as §1, §2

The test system of data set [1] is NOD1-induced type I interferon response. The data set is described as follows: Tri-DAP stimulated IP-10 secretion in HT-29 cells. Format: cell-based. The settings on record: Homo sapiens; HT-29, 50 µg/mL Tri-DAP 24 hours. How it is done: For assay, cells were seeded into 96 well plates (90,000 cells/well) in DMEM containing 1% FBS and pre-incubated with compounds for 1 hour before addition of either 25 µg/mL Tri-DAP or 1 µg/mL MDP. The level of IL-8 released into medium after 24-hour incubation was determined by HTRF assay (Cisbio) as described above and fluorescence measured on an Envision model 2102 multilabel plate reader (Perkin Elmer). The activity of compounds against NOD1-induced type I interferon response was determined by inhibition of Tri-DAP stimulated IP-10 secretion in HT-29 cells, maintained in the same medium as for HCT116 cells. The HT-29 cells were seeded into 96 well plates (60,000 cells/well) in DMEM with 1% FBS, pre-incubated with compounds for 1 hour and stimulated for 24 hours with 50 µg/mL Tri-DAP. The concentration of IL-8 released into the medium was measured by HTRF as above, IP-10 was measured using the IP-10/CXCL10 Quantikine ELISA kit (R&D Systems), and IFNβ was measured using the MA6000 human IFN-β tissue culture kit (Meso Scale Discovery).

Setting [2] is: HEK293 stably expressing human NOD1, IL-8 released into medium, read-out: IC50 293/hNOD1 iE-DAP.

Values after ≈ are worked out from the molar mass of the structure shown. Where two headings read alike, the source gives them in different places. A value given as a limit tells only on which side of the number the result lay.

Turning to `CCc1ccc(S(=O)(=O)Nc2cc(-n3c(C)nc4ccccc4c3=O)ccc2F)s1` [GSK223], in the data set “CLND solubility”, the solubility is 327 µM (≈ 145 µg/mL). The IC50 at NOD1 (setting [2]) was 1000 nM; on TNFR1, greater than 50000 nM.
In the data set “CLND solubility”, `Cc1nc2ccc(NC(=O)c3cccc(NS(=O)(=O)c4ccc(F)cc4)c3)cc2s1` [GSK966] gave a solubility of 41 µM (≈ 18.1 µg/mL). For the same compound, the figures for the IC50 on NOD1 (setting [2]) and at TNFR1 were 3500 nM and greater than 50000 nM, respectively.
In the case of `Cc1ccc(S(=O)(=O)Nc2cccc(C(=O)Nc3ccc4nc(C)sc4c3)c2)cc1` [Compound 16], the solubility in “CLND solubility” is 14 µM (≈ 6.13 µg/mL). Further, the IC50 is 400 nM on NOD1 (setting [2]); 430 ± 100 nM at NOD1 (iE-DAP-stimulated IL-8 production in 293/hNOD1 cells, SAR figures, read-out: NOD1 XC50); greater than 30000 nM on TNFR1; 250 nM in data set [1].
As for `Cc1nc2ccccc2c(=O)n1-c1ccc(Cl)c(NS(=O)(=O)c2ccccc2F)c1` [Compound 22], the IC50 was 60 nM at NOD1 (setting [2]), greater than 50000 nM at TNFR1 and 80 nM in data set [1].
Turning to `Cn1c(=O)[nH]c(=O)c2c1nc(CCSc1ccccc1)n2Cc1ccccc1` [SB711], the solubility in “CLND solubility” was found to be 2 µM (≈ 0.785 µg/mL). The IC50 at NOD1 (setting [2]) was 600 nM; on TNFR1 it was greater than 50000 nM.
